Results published in US6887876B2, “Benzamidine derivatives” (Ortho-McNeil Pharmaceutical, Inc., priority 2000, dated 2005).
pKi: −log10 of the molar value. Read-outs that look alike come from different tables or passages of the source.

Legend:
[1] = target: μ-opioid receptor (Rattus norvegicus, UniProt P33535); assay: Rat brain μ-opioid receptor binding assay ([3H]DAMGO); settings: for Ki: rat forebrain preparation, [3H]DAMGO, 25° C., read-out: μ-Opioid Receptor Binding (Ki nM)
[2] = target: δ-opioid receptor (Rattus norvegicus, UniProt P33533); assay: Rat brain δ-opioid receptor binding assay ([3H]DPDPE); settings: for Ki: rat forebrain preparation, [3H]DPDPE, 25° C., read-out: δ-Opioid Receptor Binding (Ki nM)
Sequence of δ-opioid receptor (P33533 whole entry): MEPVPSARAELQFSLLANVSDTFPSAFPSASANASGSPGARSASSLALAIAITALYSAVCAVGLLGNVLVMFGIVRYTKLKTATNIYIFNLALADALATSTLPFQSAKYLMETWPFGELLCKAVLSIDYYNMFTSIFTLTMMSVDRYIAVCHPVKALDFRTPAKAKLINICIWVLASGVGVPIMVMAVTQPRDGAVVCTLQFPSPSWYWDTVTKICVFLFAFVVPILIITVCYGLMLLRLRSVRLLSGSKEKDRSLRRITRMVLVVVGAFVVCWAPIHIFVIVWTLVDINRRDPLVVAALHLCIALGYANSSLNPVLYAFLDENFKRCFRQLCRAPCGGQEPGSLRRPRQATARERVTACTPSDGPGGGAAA

Sequence of μ-opioid receptor (P33535 whole entry): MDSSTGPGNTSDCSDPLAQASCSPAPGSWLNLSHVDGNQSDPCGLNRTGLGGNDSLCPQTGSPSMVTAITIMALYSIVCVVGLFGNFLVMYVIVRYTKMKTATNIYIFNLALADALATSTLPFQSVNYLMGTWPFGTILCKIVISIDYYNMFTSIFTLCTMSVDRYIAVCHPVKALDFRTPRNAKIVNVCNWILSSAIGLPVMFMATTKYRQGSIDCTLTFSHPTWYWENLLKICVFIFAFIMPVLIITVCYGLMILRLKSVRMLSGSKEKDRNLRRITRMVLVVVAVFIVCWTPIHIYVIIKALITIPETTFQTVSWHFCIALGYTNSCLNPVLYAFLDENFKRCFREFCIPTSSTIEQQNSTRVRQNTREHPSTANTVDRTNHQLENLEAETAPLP

Row | Ki [1] | Ki [2] | Compound | pKi [1] | pKi [2]
1 |  |  | CCN(CC)C(=O)c1ccc(C(=Nc2ccc(Cl)cc2)N2CCN(Cc3ccccc3)CC2)cc1 [Compound 28, 4-[[(4-chlorophenyl)imino][4-(phenylmethyl)-1-piperazinyl]methyl]-N,N-diethyl-benzamide] | < 5.00 | 6.85
2 | > 10000 nM | 299 nM | COCCN1CCN(C(=Nc2ccccc2Cl)c2ccc(C(=O)OC)cc2)CC1 [Compound 45, 4-[[(2-chlorophenyl)imino][4-(2-methoxyethyl)-1-piperazinyl]methyl]-benzoic acid methyl ester] |  | 
3 |  |  | CCN(CC)C(=O)c1ccc(C(=Nc2ccccc2Cl)N2CCN(CCOC)CC2)cc1 [Compound 27, 4-[[(2-chlorophenyl)imino][4-(2-methoxyethyl)-1-piperazinyl]methyl]-N,N-diethyl-benzamide] | < 5.00 | 7.27
4 | > 10000 nM | > 10000 nM | COC(=O)c1ccc(C(=Nc2ccccc2)N2CCN(CCc3cccs3)CC2)cc1 [Compound 42, 4-[(phenylimino)[4-[2-(2-thienyl)ethyl]-1-piperazinyl]methyl]-benzoic acid methyl ester] |  | 
5 |  |  | C=CCN1CCN(C(=Nc2ccccc2Cl)c2cccc(C(=O)N(CC)CC)c2)CC1 [Compound 52, 3-[[(2-chlorophenyl)imino][4-(2-propenyl)-1-piperazinyl]methyl]-N,N-diethyl-benzamide] | 6.22 | 6.31
6 |  |  | CCN(CC)C(=O)c1ccc(C(=Nc2ccccc2)N2CCN(Cc3ccccc3)CC2)cc1 [Compound 17, N,N-diethyl-4-[(phenylimino)[4-(phenylmethyl)-1-piperazinyl]methyl]-benzamide] | < 5.00 | 6.67
7 | > 10000 nM | 2010 nM | COC(=O)c1ccc(C(=Nc2ccccc2Cl)N2CCN(Cc3ccccc3)CC2)cc1 [Compound 39, 4-[[(2-chlorophenyl)imino][4-(phenylmethyl)-1-piperazinyl]methyl]-benzoic acid methyl ester] |  | 
8 | > 10000 nM | 405 nM | C=CCN1C[C@H](C)N(/C(=N/c2ccccc2)c2ccc(C(=O)OC)cc2)C[C@H]1C [Compound 51, 4-[(E)-[(2S,5R)-2,5-dimethyl-4-(2-propenyl)piperazinyl](phenylimino)methyl]-benzoic acid methyl ester] |  | 
9 | > 10000 nM | 246 nM | COC(=O)c1ccc(C(=Nc2ccc(Cl)cc2)N2CCN(Cc3ccccc3)CC2)cc1 [Compound 38, 4-[[(4-chlorophenyl)imino][4-(phenylmethyl)-1-piperazinyl]methyl]-benzoic acid methyl ester] |  | 
10 | > 10000 nM | 7640 nM | COC(=O)c1ccc(C(=Nc2ccccc2Cl)N2CCN(c3ccccc3)CC2)cc1 [Compound 35, 4-[[(2-chlorophenyl)imino](4-phenyl-1-piperazinyl)methyl]-benzoic acid methyl ester] |  | 
11 |  |  | CCN(CC)C(=O)c1ccc(C(=Nc2ccccc2C(F)(F)F)N2CCN(CCc3ccccc3)CC2)cc1 [Compound 24, N,N-diethyl-4-[[4-(2-phenylethyl)-1-piperazinyl][[2-(trifluoromethyl)phenyl]imino]methyl]-benzamide] | 6.00 | 6.26
12 | 1610 nM | 2150 nM | C=CCN1CCN(C(=Nc2ccccc2Cl)c2cccc(C(=O)OC)c2)CC1 [Compound 54, 3-[[(2-chlorophenyl)imino][4-(2-propenyl)-1-piperazinyl]methyl]-benzoic acid methyl ester] |  | 
13 | > 10000 nM | 1690 nM | COC(=O)c1ccc(C(=Nc2ccccc2)N2CCN(Cc3ccccc3)CC2)cc1 [Compound 37, 4-[(phenylimino)[4-(phenylmethyl)-1-piperazinyl]methyl]-benzoic acid methyl ester] |  | 
14 |  |  | CCN(CC)C(=O)c1ccc(C(=Nc2ccccc2)N2CCCN(CCc3ccccc3)CC2)cc1 [Compound 56, N,N-diethyl-4-[[hexahydro-4-(2-phenylethyl)-1H-1,4-diazepin-1-yl](phenylimino)methyl]-benzamide] |  | 6.40
